Assay results from ChEMBL document CHEMBL1125711, “Flavins as potential antimalarials. 2. 3-Methyl-10-(substituted-phenyl) flavins” (J Med Chem, 1991).

What was measured:
[1] = system: Plasmodium vinckei vinckei; assay: Antimalarial activity against Plasmodium vinckei V52 on 10 mg/kg intraperitoneal dose; format: functional
Mus musculus [2] = assay: Increase in mean survival days was determined in mice after ip administration of 10 mg/kg; format: functional; conditions: route intraperitoneal
Mus musculus [3] = assay: Antimalarial activity was evaluated against Plasmodium vinckei vinckei V52 after intraperitoneal administration at dose 40 mg/kg; format: functional
[4] = system: Plasmodium vinckei vinckei; assay: Antimalarial activity against Plasmodium vinckei V52 after 30 mg/kg intraperitoneal dose
[5] = system: Plasmodium vinckei vinckei; assay: Antimalarial activity against Plasmodium vinckei V52 on 70 mg/kg intraperitoneal dose; format: functional
Mus musculus [6] = assay: Increase in mean survival days was determined in mice after ip administration of 40 mg/kg; toxic; format: functional; conditions: route intraperitoneal
Mus musculus [7] = assay: Increase in mean survival days was determined in mice after ip administration of 70 mg/kg; toxic; format: functional; conditions: route intraperitoneal
Mus musculus [8] = assay: Antimalarial activity was evaluated against Plasmodium vinckei vinckei V52 after intraperitoneal administration at dose 50 mg/kg; format: functional
Mus musculus [9] = assay: Increase in mean survival days was determined in mice after ip administration of 30 mg/kg; format: functional; conditions: route intraperitoneal
Mus musculus [10] = assay: Increase in mean survival days was determined in mice after ip administration of 50 mg/kg; toxic; format: functional; conditions: route intraperitoneal
Mus musculus [11] = assay: Antimalarial activity was evaluated against Plasmodium vinckei vinckei V52 after intraperitoneal administration at dose 25 mg/kg; format: functional
Mus musculus [12] = assay: Antimalarial activity was evaluated against Plasmodium vinckei V52 after intraperitoneal administration at dose 20 mg/kg; format: functional
Mus musculus [13] = species: Mus musculus; assay: Effective dose required to obtain a parasitaemia of 40% 48 hours after treatment in mice; format: functional
Mus musculus [14] = assay: Increase in mean survival days was determined in mice after ip administration of 15 mg/kg; format: functional; conditions: route intraperitoneal
Mus musculus [15] = assay: Antimalarial activity was evaluated against Plasmodium vinckei V52 after intraperitoneal administration at dose 15 mg/kg; format: functional
Mus musculus [16] = assay: Antimalarial activity was evaluated against Plasmodium vinckei vinckei V52 after intraperitoneal administration at dose 30 mg/kg; format: functional
Mus musculus [17] = assay: Increase in mean survival days was determined in mice after ip administration of 20 mg/kg; format: functional; conditions: route intraperitoneal
Mus musculus [18] = assay: Increase in mean survival days was determined in mice after ip administration of 20 mg/kg; toxic; format: functional; conditions: route intraperitoneal
[19] = system: Plasmodium vinckei vinckei; assay: Antimalarial activity against Plasmodium vinckei V52 after 20 mg/kg intraperitoneal dose; format: functional
Mus musculus [20] = assay: Increase in mean survival days was determined in mice after ip administration of 25 mg/kg; toxic; format: functional; conditions: route intraperitoneal
Mus musculus [21] = assay: Increase in mean survival days was determined in mice after ip administration of 50 mg/kg; format: functional; conditions: route intraperitoneal
Mus musculus [22] = assay: Antimalarial activity was evaluated against Plasmodium vinckei V52 after intraperitoneal administration at dose 30 mg/kg; format: functional
Mus musculus [23] = species: Mus musculus; assay: Effective dose required to obtain a parasitaemia of 40% 48 hours after treatment in mice.; format: functional
Mus musculus [24] = assay: Antimalarial activity was evaluated against Plasmodium vinckei vinckei V52 after intraperitoneal administration at dose 70 mg/kg; format: functional
Mus musculus [25] = assay: Antimalarial activity was evaluated against Plasmodium vinckei V52 after intraperitoneal administration at dose 60 mg/kg; format: functional
Mus musculus [26] = assay: Increase in mean survival days was determined in mice after ip administration of 60 mg/kg; format: functional; conditions: route intraperitoneal
Mus musculus [27] = assay: Antimalarial activity was evaluated against Plasmodium vinckei vinckei V52 after intraperitoneal administration at dose 10 mg/kg; format: functional
[28] = system: Plasmodium vinckei vinckei; assay: Increase in mean survival days of Plasmodium inoculated mice (Mus musculus) after 70 mg/Kg intraperitoneal dose; format: functional
Mus musculus [29] = assay: Antimalarial activity was evaluated against Plasmodium vinckei V52 after intraperitoneal administration at dose 50 mg/kg; format: functional
[30] = system: Plasmodium vinckei vinckei; assay: Antimalarial activity against Plasmodium vinckei V52 on 30 mg/kg intraperitoneal dose; format: functional
Mus musculus [31] = assay: Antimalarial activity was evaluated against Plasmodium vinckei vinckeii V52 after intraperitoneal administration at dose 40 mg/kg; format: functional
Mus musculus [32] = assay: Antimalarial activity was evaluated against Plasmodium vinckei V52 after intraperitoneal administration at dose 25 mg/kg; format: functional
Mus musculus [33] = assay: Antimalarial activity was evaluated against Plasmodium vinckei vinckei V52 after intraperitoneal administration at dose 50 mg/kg.; format: functional
Mus musculus [34] = assay: Increase in mean survival days was determined in mice after ip administration of 40 mg/kg; format: functional; conditions: route intraperitoneal
Mus musculus [35] = assay: Antimalarial activity was evaluated against Plasmodium vinckei vinckei V52 after intraperitoneal administration at dose 40 mg/kg.; format: functional
Mus musculus [36] = assay: Antimalarial activity was evaluated against Plasmodium vinckei V52 after intraperitoneal administration at dose 70 mg/kg; format: functional
Mus musculus [37] = assay: Antimalarial activity was evaluated against Plasmodium vinckei vinckeii V52 after intraperitoneal administration at dose 25 mg/kg; format: functional
[38] = system: Plasmodium vinckei vinckei; assay: Antimalarial activity against Plasmodium vinckei vinckeii V52 after 10 mg/kg intraperitoneally dose; format: functional; conditions: route intraperitoneal
[39] = system: Plasmodium vinckei vinckei; assay: Antimalarial activity against Plasmodium vinckei vinckeii V52 at 15 mg/kg intraperitoneally dose; format: functional; conditions: route intraperitoneal
Mus musculus [40] = assay: Antimalarial activity was evaluated against Plasmodium vinckei vinckeii V52 after intraperitoneal administration at dose 50 mg/kg; format: functional
[41] = system: Plasmodium vinckei vinckei; assay: Antimalarial activity against Plasmodium vinckei vinckeii V52 at 20 mg/kg intraperitoneally dose; format: functional; conditions: route intraperitoneal
Mus musculus [42] = assay: Increase in mean survival days was determined in mice after ip administration of 60 mg/kg; toxic; format: functional; conditions: route intraperitoneal
Mus musculus [43] = assay: Antimalarial activity was evaluated against Plasmodium vinckei vinckei V52 after intraperitoneal administration at dose 60 mg/kg; format: functional
Mus musculus [44] = assay: Antimalarial activity was evaluated against Plasmodium vinckei V52 after intraperitoneal administration at dose 10 mg/kg; format: functional
Mus musculus [45] = assay: Antimalarial activity was evaluated against Plasmodium vinckei vinckeii V52 after intraperitoneal administration at dose 60 mg/kg; format: functional
Mus musculus [46] = assay: Antimalarial activity was evaluated against Plasmodium vinckei vinckeii V52 after intraperitoneal administration at dose 15 mg/kg; format: functional

SMILES | Cured [1] | Mean survival days (Mus musculus [2]) | Cured (Mus musculus [3]) | Cured [5] | Mean survival days (Mus musculus [7]) | Cured (Mus musculus [8]) | Mean survival days (Mus musculus [9]) | Cured (Mus musculus [11]) | Cured (Mus musculus [12]) | ED40 (Mus musculus [13]) | Mean survival days (Mus musculus [14]) | Cured (Mus musculus [15]) | Mean survival days (Mus musculus [17]) | Cured [19] | Mean survival days (Mus musculus [21]) | Cured (Mus musculus [22]) | Mean survival days (Mus musculus [26]) | Cured [30] | other results
Cc1ccc(-n2c3nc(=O)n(C)c(=O)c-3nc3ccccc32)c(C)c1 | 0% | 0.4 days | 40% | 0% | -2 days | 0% | 1.3 days | – | – | – | – | – | – | – | – | – | – | – | Cured [4]: 20%; Mean survival days (Mus musculus [6]): -1.7 days; Mean survival days (Mus musculus [10]): -2 days
Cc1cc(Cl)cc(-n2c3nc(=O)n(C)c(=O)c-3nc3ccccc32)c1 | 0% | 0.2 days | 100% | 100% | – | 100% | – | 100% | 80% | 85.7 µmol/kg | 0.5 days | 60% | 1 days | – | – | – | – | – | Cured (Mus musculus [16]): 100%
CCc1ccccc1-n1c2nc(=O)n(C)c(=O)c-2nc2ccccc21 | 0% | 0 days | – | – | – | – | – | 0% | – | – | – | – | – | 0% | – | – | – | – | Mean survival days (Mus musculus [18]): -2 days; Mean survival days (Mus musculus [20]): -2 days
Cc1ccc(-n2c3nc(=O)n(C)c(=O)c-3nc3ccccc32)cc1C | – | 0.3 days | – | – | – | 20% | 0.8 days | – | 0% | – | – | – | 0.2 days | – | 0.3 days | 0% | 0.5 days | – | ED40 (Mus musculus [23]): 210 µmol/kg; Cured (Mus musculus [24]): 100%; Cured (Mus musculus [25]): 60%; Cured (Mus musculus [27]): 0%
Cn1c(=O)nc2n(-c3ccccc3)c3ccccc3nc-2c1=O | 0% | 0 days | – | 60% | – | – | 0 days | – | – | – | – | – | – | – | 0.3 days | – | 0.5 days | 0% | Mean survival days [28]: 1 days; ED40 (Mus musculus [23]): 248 nM/kg; Cured (Mus musculus [29]): 0%; Cured (Mus musculus [25]): 20%
Cn1c(=O)nc2n(-c3ccc(Cl)cc3)c3ccccc3nc-2c1=O | 20% | 0.3 days | – | 0% | -1 days | – | – | – | – | 38.8 µmol/kg | 4 days | 80% | – | 100% | – | – | – | 100% | Cured (Mus musculus [31]): 100%; Cured (Mus musculus [32]): 100%; Mean survival days (Mus musculus [10]): -0.8 days; Cured (Mus musculus [33]): 20%
Cn1c(=O)nc2n(-c3ccc(F)cc3)c3ccccc3nc-2c1=O | 0% | 0 days | – | 0% | -0.6 days | – | 0 days | – | – | 103 µmol/kg | 0 days | 0% | 13.4 days | 0% | -0.5 days | – | – | 80% | Cured (Mus musculus [29]): 20%; Mean survival days (Mus musculus [34]): 0 days; Cured (Mus musculus [35]): 80%
Cn1c(=O)nc2n(-c3ccc(Br)cc3)c3ccccc3nc-2c1=O | – | – | – | – | – | – | – | – | – | 38.4 µmol/kg | – | – | – | – | – | 100% | – | – | Cured (Mus musculus [36]): 0%; Cured (Mus musculus [37]): 100%; Cured [38]: 0%; Cured [39]: 100%; Cured (Mus musculus [40]): 40%; Cured [41]: 100%
Cc1cc(C)cc(-n2c3nc(=O)n(C)c(=O)c-3nc3ccccc32)c1 | 0% | 0 days | 100% | – | – | 60% | – | 100% | 100% | 105 µmol/kg | 1 days | 60% | – | – | 5.5 days | – | – | – | Mean survival days (Mus musculus [42]): 0.4 days; Cured (Mus musculus [16]): 100%; Cured (Mus musculus [43]): 0%
Cn1c(=O)nc2n(-c3cccc(Br)c3)c3ccccc3nc-2c1=O | – | 0 days | – | – | – | – | 0 days | – | – | – | 0 days | – | – | – | 1 days | 0% | -1 days | – | Cured (Mus musculus [36]): 100%; Cured (Mus musculus [44]): 0%; Cured (Mus musculus [45]): 80%; Cured (Mus musculus [31]): 0%; Mean survival days (Mus musculus [34]): 0 days; Cured (Mus musculus [40]): 80%; Cured (Mus musculus [46]): 0%
